The source of these data is patent US7691387B2, “Cinnamomi and poria composition, method to prepare same and uses thereof” (Jiangsu Kanion Pharmaceutical Co., Ltd, priority 2000, dated 2010).

The subject of series [1] is twisting responses of mice induced by acetic acid. The series can be described thus: Acetic acid twisting experiment. It is filed as in vivo. Particulars: positive control, 0.2 g/kg. The protocol: Randomly divide the animals into 5 groups. […] After the drug has been administered on the third day, celio-inject 0.5% acetic acid to the mice in groups. Observe and record the times of twisting of mice within 30 minutes. [formula]

Series [2] deals with extra-corporeal platelet aggregation of rabbits. The series can be described thus: Extra-corporeal platelet aggregation of rabbit (ADP). Particulars: 0.3 Mg/ml. It is filed as cell-based.
Series [3] deals with platelet aggregation of rats. The series can be described thus: Platelet aggregation experiments of rats. It is filed as in vivo, Wister rats. Particulars: 0.1 g/kg once. The procedure:
The drug concentration is 0.5 mg/ml. […] The drug concentration is 1 g/ml. […] The drug concentration is 1 g/ml. Experimental process: […] Half an hour after administering the drug on the fifth day, use ether to anaesthetize the rats. […] Administer a 0.1 g/kg aspirin once to the positive control group. Prepare platelet plasma according to the method explained previously. Do the aggregation experiments, and record the conditions of every group.

In series [4] the test system is mice bone marrow cells. In words: Micronucleus test. It counts as in vivo, ICR mouse. The protocol: 30 mice were randomly divided into 5 groups, each group contained 6 animals. Three of the groups were drug-groups and animals in them were given to CCP by gastric gavage at doses of 2.5 g/kg/day, 1.25 g/kg/day and 0.625 g/kg/day for 2 days. (LD50 of CCP from an acute toxicity test was 5 g/Kg, we adopted a half dose for our study). The fourth group is given to normal saline (0.5 ml/mice) as a negative control group. The last group was given to cyclophosphamide(CP) at 40 mg/Kg via abdominal cavity injection as a positive control group.
Animals were killed 24 hours after administration. Both femurs of the mice were taken for sampling. Femurs were pressed to move out the marrow, with a drop of calf serum added to it, smear the marrow on a plate. After the smeared plate was fixed in the solution of methyl for 10 minutes, it was dyed with the Giemsa's method and observed under the oil lens of a microscope. In the principle of double-blinded study, PCE and MNPCE cells were counted. 1000 PCE and MNPCE cell were counted for each mice, calculated the ratio of micronuclei over the 1000 cells. The ratio of micronuclei represents the dose-effectiveness relation. The data was analyzed with statistical t test.

The conditions of series [5]: cited from earlier work.
Series [6] concerns rats' Whole Blood Ratio Viscosity. The series can be described thus: Whole Blood Ratio Viscosity of rats. It is filed as in vivo, Wister rats. Particulars: 0.2 g/kg, 5 days. The procedure:
Drug dispensation: put a 12.5 g extract of CCP in a 100 ml solution of normal saline and mix adequately. The drug concentration is 0.125 g/ml (containing 0.5 g/ml of crude drugs). Put a 25 extract of CCP in 100 ml of normal saline. The drug concentration is 0.25 g/ml (containing […] of crude drugs). Put a 50 extract of CCP in a 100 ml of normal saline and mix adequately. The drug concentration is 0.5 g/ml (containing 2 g/ml crude drugs).
Persantine: put 2 in normal saline and mix adequately. The drug concentration will be 20 mg/ml.
Experimental processing: Randomly divide male Wister rats weighing 250 to 300 g into five groups with eight rats in each group. Low, medium and high dose groups can take the extract of CCP in a concentration of 10 ml/kg. The concentration of crude drugs is 5 g/kg, 10.0 g/kg and 20 g/kg respectively. The control group takes normal saline of the same volume; positive medicine group takes 0.2 g/kg, which is 10 ml/kg of persantine. The drug must be administered once a day for five consecutive days. After an hour and a half of administering the drug on the fifth day, lightly anaesthetize the […] with ether. Record 40 test tubes, and put 0.1 ml heparin in each. Take blood from the abdominal aorta of the […] and fill each tube with 1 ml of blood. Then use XN-5 Type Blood Viscometer to determine the Whole Blood Ratio Viscosity.

The test system of series [7] is rats' extra-corporeal uterine smooth muscle. The series can be described thus: Contraction of normal rats' extra-corporeal uterine smooth muscle. Also noted: species or system Wister rats. The following applies: 7 μg/ml. The protocol: a) Put 5.4g extract of CCP in 100 ml of the Locke's solution and mixed thoroughly. The drug concentration results in 54 mg/ml. Take 1 ml of this solution, put it into a homothermic flume with 9 ml of the Locke's solution. The drug concentration from this mixture contains 5.4 mg/ml. Likewise, put 2.7 g extract of CCP in 100 ml of the Locke's solution and mixed thoroughly. Take 1 ml of this mixture, combine it with 9 ml of Locke's solution and the drug concentration will result in 2.7 mg/ml. Mix up 100 ml of the Locke's solution with a 1.9 g CCP's extract. Take 1 ml of this mixture, combine it with 9 ml of the Locke's solution and the drug concentration will result in 1.9 mg/ml. Mix 200 ml of the Locke's solution with 2.6 of CCP's extract, the concentration will result in 13 mg/ml. Take 1 ml of this mixture, combine it with 9 ml of the Locke's solution which results in a drug concentration of 1.3 mg/ml. Mix 200 ml or 300 ml of the Locke's solution with 1.8 CCP's resulting in a drug concentration of 9 mg/ml and 6 mg/ml respectively. Take 1 ml of this mixture into homothermic flume with 9 ml of the Locke's solution. The result is a drug concentration containing 0.9 mg/ml and 0.6 mg/ml respectively
9.0 of NaCL, 0.42 of KCL, 0.24 of CaCL2, 0.2 of NaHCO3 and 1.0 g of glucose. Mixed with distilled water until obtaining 1000 ml. PH is about 7.
Twenty-four hours prior to the experiment, intramuscularly inject non-pregnant female rats with a 0.3 mg/kg weight-dose of Dihydrotheelin. The effect artificially puts them in estrus period so as to increase their sensitivity to the CCP. Decapitate the rats, rapidly paunch, take out the uterus and remove the fat. Cut the uterus in 2 cm of length and put it directly in the homothermic flume with 9 ml of the Locke's solution. One end of the uterus must be fixed on the crotchet of the L shaped ventilating pipe and the other end connected to the Muscle Tension Transducer. Keep the temperature of the homothermic flume at 32° C. Continuously emit oxygen into the fume, at least 60-80 bladders per minute and add in 1 ml of the previous solution with a different concentration. After recording a segment of normal contraction curve, observe the different phases before-and-after administering the drug. Respectively, record the contraction frequency and range. Observe from 1 to 10, 10 to 20, and 20 to 30 minutes before-and-after adding the drug solution. Count the uterine activity, and record data between control groups before-and-after administering the drug.
Animals' Grouping: randomly divide the Wister female rats' extracorporeal uteruses into a normal saline control group (NSG) and a CCP group (CCPG). […]

Series [8] has as its system ear swelling of mice. In words: Croton oil ear swelling of mice. It is filed as in vivo, Kunming mice. The following applies: 0.025 g/Kg, three days. The procedure: Preparation of drug: Put 12.5 g of extract of CCP in 100 ml of normal saline, and mix adequately. The drug concentration is […]. Put 25 g of extract of CCP in 100 ml of normal saline, and mix adequately. The drug concentration is 1 g/ml. Put 50 g of extract of CCP in 100 ml of normal saline, and mix adequately. The drug concentration is 2 g/ml. Put 12.5 g of the Bolus of Cinnamomi & Poria in 100 ml of normal saline, and mix adequately. The drug concentration is […]. Put 25 g of extract in 100 ml of normal saline, and mix adequately. The drug concentration is 1 g/ml. Put 50 g of extract in 100 ml of normal saline, and mix adequately. The drug concentration is 2g/ml. Put 0.1 g of Hydrocortisone in 100 ml of normal saline. The drug concentration is 1 mg/ml. Administer all three preparations (a total of seven different solutions) with 10 ml/kg.
Experimental method: According to their weight, randomly divide fifty male mice into eight groups. Administer different doses of the seven solutions mentioned above for three days and for the control group administer the normal saline of the same volume. After three days of administering the drug, besmear […] croton oil on both sides of every mouse's left ear (compare with right ear). […]

The test system of series [9] is golden staphylococcus. Particulars: cited from earlier work.
The test system of series [10] is streptococcus faecalis. The following applies: cited from earlier work.
The subject of series [11] is coliform. The following applies: cited from earlier work.
For series [12], the system named is bacillus subtilis. The following applies: cited from earlier work.
Series [13] relates to tinea germ between toes. The following applies: cited from earlier work.
Series [14] concerns blood pressure of anaesthetized dog. Particulars: mainline 80-120 mg/kg; cited from earlier work.
The test system of series [15] is rheumatism, stomachache, other pains, eczema, dermatitis. The following applies: cited from earlier work.
For series [16] the following is noted: cited from earlier work. The source holds these as a separate data set.
[17] abbreviates: cyclophosphamide 40 mg/Kg, per 1000 cells.

Where two headings read alike, the source gives them in different places.

For the compound `CC(=O)Oc1ccccc1C(=O)O` [Aspirin, Acetylsalicylic acid], the “controlling rate of twisting times” value in series [1] was found to be 61.08%. In addition, in series [2], the “Aggregation(%)” value is given as 32.94 ± 1.68 %. Also, in [3], the Aggregation ratio is 26.58 ± 10.58.

On to `O=P1(N(CCCl)CCCl)NCCCO1` (stereo not drawn) [Positive control, cyclophosphamide], for which the “number of Micronuclei” value in series [4] (cyclophosphamide 40 mg/Kg abdominal cavity injection, 6000 PCE cells) amounted to 381. In [4] (setting [17]), the “incidence of micronuclei, Range” value is listed as 43-98 and the “incidence of micronuclei, X ± SD” value amounted to 63.5000 ± 20.6373. In addition, the “incidence of micronucleus” value in series [4] (cyclophosphamide injection 40 mg/Kg) is on record as “obviously higher than the negative control”.

As for `N#C[C@H](O[C@@H]1O[C@H](CO[C@@H]2O[C@H](CO)[C@@H](O)[C@H](O)[C@H]2O)[C@@H](O)[C@H](O)[C@H]1O)c1ccccc1` [Amygdalin, Benzeneacetonitrile, α-[(6-O-β-D-glucopyranosyl-β-D-glucopyranosyl)oxy]-, (R)—], the “volume in which 1 g resolves” value in [5] (boiling ethanol) was 11 mL; in [5] (ethanol) it was 900 mL; in series [5] (water) it was 12 mL.

Regarding `OCCN(CCO)c1nc(N2CCCCC2)c2nc(N(CCO)CCO)nc(N3CCCCC3)c2n1` [Persantine], in series [6], the “Whole Blood Ratio Viscosity, high shear” value was 12.10 ± 1.90 and the “Whole Blood Ratio Viscosity, low shear” value is recorded as 16.12 ± 6.92.

For Pregnendione [Progestin], in series [7], the “contraction frequency of rats' uterine smooth muscle” value is on record as “can control contraction frequency”. The contraction frequency in [7] (after adm. 0-20 mins) amounted to 6.3 ± 2.5 time/10 mins. Moreover, in series [7] (after adm. 1-10 mins), the contraction activity was 47.2 ± 22.9%; the “contraction activity, controlling %” value is 31.9%; the contraction frequency was 6.1 ± 2.0 time/10 mins; the “contraction frequency, controlling percentage” value amounted to 23.8%. In addition, in [7] (after adm. 1-10 mins), the contraction range is given as 7.4 ± 2.3 mm and the “contraction range, controlling percent” value worked out at 14.0%. For the same compound, in series [7] (after adm. 10-20 mins), the contraction activity is on record as 46.3 ± 27.9%; the “contraction activity, controlling %” value stood at 33.2%; the “contraction frequency, controlling percentage” value amounted to 21.3%; the contraction range was 7.0 ± 2.6 mm. Besides, the “contraction range, controlling percent” value in [7] (after adm. 10-20 mins) turned out to be 18.6%. Moreover, in series [7] (after adm. 20-30 mins), the contraction activity is given as 35.2 ± 22.5%; the “contraction activity, controlling %” value was 49.2%; the contraction frequency is 5.0 ± 2.4 time/10 mins; the “contraction frequency, controlling percentage” value is 37.5%. For the same compound, in [7] (after adm. 20-30 mins), the contraction range came to 7.0 ± 2.8 mm and the “contraction range, controlling percent” value came to 18.6%. In addition, in series [7] (before adm.), the contraction activity turned out to be 69.3 ± 20.9%, the contraction frequency came to 8.0 ± 0.8 time/10 mins and the contraction range was found to be 8.6 ± 2.2 mm.

Take `C[C@]12CCC(=O)C=C1CC[C@@H]1[C@@H]2[C@@H](O)C[C@@]2(C)[C@H]1CC[C@]2(O)C(=O)CO` [Hydrocortisone]: the Average swelling degree in [8] is 4.68 ± 3.43.

As to `COc1ccc(C(C)=O)c(O)c1` [Paeonol, Ethanone, 1-(2-hydroxy-4-methoxyphenyl)-], the controlling consistency is 500 µg/mL in [9]; 500 µg/mL in [10]; 200 µg/mL in series [11]; 200 µg/mL in series [12]; 250 µg/mL in series [13]. Further, in [14], the “duration of reduced pressure” value is 10 to 12 min. Further, the reduce pressure in series [14] is listed as 41-61%. In addition, the validity rate is 92% in series [15] (261 cases with rheumatoid arthritis, lumbago, bellyache, postoperative & cancer pain) and 83% in series [15] (inject 50˜100 mg, rheumatism, other pains, eczema, dermatitis). The solubility in water entry in series [16] is “resolve a little in water”.
